Experimental findings from US8541457B2, “Aminothiazole derivatives as human stearoyl-CoA desaturase inhibitors” (Xenon Pharmaceuticals Inc., priority 2005, dated 2013) are described below.

`COc1cccc(C(=O)Nc2nc(C)c(C(=O)NCc3ccccc3)s2)c1` [Example 2.34, 2-(3-Methoxybenzoylamino)-4-methylthiazole-5-carboxylic Acid Benzylamide] returned a melting point of 75 to 77 °C.

For the compound `Cc1nc(NC(=O)CC2CC2)sc1C(=O)NCc1ccccc1` [Example 2.41, 2-(2-Cyclopropylacetylamino)-4-methylthiazole-5-carboxylic Acid Benzylamide], the melting point lay within 136 to 139 °C.

`Cc1nc(NC(=O)c2ccccc2)sc1C(=O)n1ccnc1` [Example 10, N-(5-(1H-Imidazole-1-carbonyl)-4-methylthiazol-2-yl)benzamide]: the melting point lay in the range of 228 to 231 °C.

`Cc1nc(NC(=O)c2ccc(C#N)cc2)sc1C(=O)NCc1ccccc1` [Example 2.25, 2-(4-Cyanobenzoylamino)-4-methylthiazole-5-carboxylic Acid Benzylamide] displayed a melting point of 256 to 258 °C.

Consider `COc1cc(C(=O)Nc2nc(C)c(C(=O)NCc3ccccc3)s2)ccn1` [Example 13, N-Benzyl-2-(2-methoxyisonicotinamido)-4-methylthiazole-5-carboxamide], for which the melting point was in the range of 188 to 190 °C.

Consider `Cc1nc(NC(=O)c2cc(F)cc(F)c2)sc1C(=O)NCc1ccccc1` [Example 2.29, 2-(3,5-Difluorobenzoylamino)-4-methylthiazole-5-carboxylic Acid Benzylamide], for which the melting point fell in the range of 84 to 86 °C.

In turn, `Cc1nc(NC(=O)c2ccc(OC(F)(F)F)cc2)sc1C(=O)NCc1ccccc1` [Example 2.32, 4-Methyl-2-(4-trifluoromethoxybenzoylamino)thiazole-5-carboxylic Acid Benzylamide] came in with a melting point of 168 to 170 °C.

Turning to `COc1ccc(C(=O)Nc2nc(C)c(C(=O)NCc3ccccc3)s2)cc1` [Example 2.33, 2-(4-Methoxybenzoylamino)-4-methylthiazole-5-carboxylic Acid Benzylamide], the melting point lay within 203 to 204 °C.

Turning to `Cc1nc(NC(=O)c2ccc(F)cc2Cl)sc1C(=O)NCc1ccccc1` [Example 2.20, 2-(2-Chloro-4-fluorobenzoylamino)-4-methylthiazole-5-carboxylic Acid Benzylamide], the melting point was in the range of 95 to 96 °C.

Consider `Cc1nc(NC(=O)c2cccc(OC(F)(F)F)c2)sc1C(=O)NCc1ccccc1` [Example 2.28, 4-Methyl-2-(3-trifluoromethoxybenzoylamino)thiazole-5-carboxylic Acid Benzylamide], for which the melting point lay in the range of 230 to 232 °C.

The compound `Cc1nc(NC(=O)c2ccn(-c3ccccc3)c(=O)c2)sc1C(=O)NCc1ccccc1` [Example 15, N-Benzyl-4-methyl-2-(2-oxo-1-phenyl-1,2-dihydropyridine-4-carboxamido)thiazole-5-carboxamide] came in with a melting point of 260 to 262 °C.

`Cc1nc(NC(=O)c2cccc(Cl)c2)sc1C(=O)NCc1ccccc1` [Example 2.19, 2-(3-Chlorobenzoylamino)-4-methylthiazole-5-carboxylic Acid Benzylamide] returned a melting point of 178 to 179 °C.

On to `Cc1nc(NC(=O)c2ccccc2)sc1C(=O)NCC1CC1` [Example 7, 2-Benzoylamino-4-methylthiazole-5-carboxylic Acid Cyclopropylmethylamide], for which the melting point lay in the range of 163 to 166 °C.

`Cc1nc(NC(=O)c2ccccc2OC(F)(F)F)sc1C(=O)NCc1ccccc1` [Example 2.21, 4-Methyl-2-(2-trifluoromethoxybenzoylamino)thiazole-5-carboxylic Acid Benzylamide]: the melting point was in the range of 140 to 141 °C.

In turn, `O=C(Nc1nc(Cl)c(C(=O)NCc2ccccc2)s1)c1ccccc1` [Example 3.1, 2-Benzoylamino-4-chlorothiazole-5-carboxylic Acid Benzylamide] showed a melting point of 247 to 249 °C.

In the case of `Cc1nc(NC(=O)c2cc(Cl)ccc2F)sc1C(=O)NCc1ccccc1` [Example 2.30, 2-(5-Chloro-2-fluorobenzoylamino)-4-methylthiazole-5-carboxylic Acid Benzylamide], the melting point lay in the range of 175 to 178 °C.

Regarding `Cc1nc(NC(=O)Cc2ccccc2)sc1C(=O)NCc1ccccc1` [Example 2.39, 4-Methyl-2-phenylacetylaminothiazole-5-carboxylic Acid Benzylamide], the melting point was 63 to 65 °C.

`CCC(NC(=O)c1sc(NC(=O)c2ccccc2)nc1C)c1ccccc1` (centres unmarked) [Example 3, 2-Benzoylamino-4-methylthiazole-5-carboxylic Acid (1-Phenylpropyl)amide] returned a melting point of 87 to 89 °C.

In the case of `Cc1nc(NC(=O)c2ccncc2)sc1C(=O)NCc1ccccc1` [Example 1, N-(5-Benzylcarbamoyl-4-methylthiazol-2-yl)isonicotinamide], the melting point was in the range of 171 to 172 °C.

With `Cc1nc(NC(=O)Nc2ccccc2)sc1C(=O)NCc1ccccc1` [Example 4, 4-Methyl-2-(3-phenylureido)thiazole-5-carboxylic Acid Benzylamide], the melting point was more than 300 °C.

On to `Cc1nc(NC(=O)c2ccccc2)sc1C(=O)NCc1ccccc1C(F)(F)F` [Example 7.5, 2-Benzoylamino-4-methylthiazole-5-carboxylic Acid 2-Trifluoromethylbenzylamide], for which the melting point is 198 to 199 °C.

`Cc1nc(NC(=O)c2cccc(S(C)(=O)=O)c2)sc1C(=O)NCc1ccccc1` [Example 2.35, 2-(3-Methanesulfonylbenzoylamino)-4-methylthiazole-5-carboxylic Acid Benzylamide] came in with a melting point of 111 to 113 °C.

`Cc1nc(NC(=O)C2CC2)sc1C(=O)NCc1ccccc1` [Example 2.2, 2-(Cyclopropanecarbonylamino)-4-methylthiazole-5-carboxylic Acid Benzylamide] came in with a melting point of 241 to 243 °C.

As for `Cc1nc(NCc2ccccc2)sc1C(=O)NCc1ccccc1` [Example 8, 2-Benzylamino-4-methylthiazole-5-carboxylic Acid Benzylamide], the melting point was in the range of 169 to 172 °C.

Consider `Cc1nc(NC(=O)c2ccccc2)sc1C(=O)NNC(=O)c1ccccc1` [Example 9, N-(5-(2-Benzoylhydrazinecarbonyl)-4-methylthiazol-2-yl)benzamide], for which the melting point lay in the range of 258 to 260 °C.

Turning to `CCC(=O)Nc1nc(C)c(C(=O)NCc2ccccc2)s1` [Example 2.1, 4-Methyl-2-propionylaminothiazole-5-carboxylic Acid Benzylamide], the melting point is 175 to 176 °C.

As to `Cc1nc(NC(=O)CCc2ccccc2)sc1C(=O)NCc1ccccc1` [Example 2.40, 4-Methyl-2-(3-phenylpropionylamino)thiazole-5-carboxylic Acid Benzylamide], the melting point was in the range of 63 to 65 °C.

Compound `Cc1ccc(S(=O)(=O)Nc2nc(C)c(C(=O)NCc3ccccc3)s2)cc1` [Example 2.42, 4-Methyl-2-(toluene-4-sulfonylamino)thiazole-5-carboxylic Acid Benzylamide] showed a melting point of 242 to 245 °C.

As to `Cc1nc(NC(=O)c2ccc(Cl)c(Cl)c2)sc1C(=O)NCc1ccccc1` [Example 2.37, 2-(3,4-Dichlorobenzoylamino)-4-methylthiazole-5-carboxylic Acid Benzylamide], the melting point fell in the range of 212 to 214 °C.

Compound `Cc1nc(NC(=O)c2ccccc2)sc1C(=O)NCc1ccc(F)cc1` [Example 7.6, 2-Benzoylamino-4-methylthiazole-5-carboxylic Acid 4-Fluorobenzylamide] showed a melting point of 206 to 208 °C.

`Cc1nc(NC(=O)c2ccc(S(C)(=O)=O)cc2)sc1C(=O)NCc1ccccc1` [Example 2.38, 2-(4-Methanesulfonylbenzoylamino)-4-methylthiazole-5-carboxylic Acid Benzylamide] registered a melting point of 262 to 265 °C.

`Cc1nc(NC(=O)c2cc[nH]c(=O)c2)sc1C(=O)NCc1ccccc1` [Example 14, N-Benzyl-4-methyl-2-(2-oxo-1,2-dihydropyridine-4-carboxamido)thiazole-5-carboxamide] returned a melting point of 290 to 292 °C.

Turning to `Cc1nc(NC(=O)c2ccccc2)sc1C(=O)NCc1ccccc1Cl` [Example 7.4, 2-Benzoylamino-4-methylthiazole-5-carboxylic acid 2-chlorobenzylamide], the melting point lay in the range of 191 to 193 °C.

For the compound `Cc1nc(NC(=O)c2cc(Cl)cc(Cl)c2)sc1C(=O)NCc1ccccc1` [Example 2.24, 2-(3,5-Dichlorobenzoylamino)-4-methylthiazole-5-carboxylic Acid Benzylamide], the melting point was in the range of 104 to 105 °C.

`Cc1nc(NC(=O)Nc2ccc(F)cc2)sc1C(=O)NCc1ccccc1` [Example 4.1, 2-[3-(4-Fluorophenyl)ureido]-4-methylthiazole-5-carboxylic Acid Benzylamide] showed a melting point of more than 300 °C.

`Cc1nc(NC(=O)c2ccccc2)sc1C(=O)NCc1ccccc1F` [Example 7.3, 2-Benzoylamino-4-methylthiazole-5-carboxylic Acid 2-Fluorobenzylamide] came in with a melting point of 180 to 183 °C.

In the case of `Cc1nc(NC(=O)c2cccc(C(F)(F)F)c2)sc1C(=O)NCc1ccccc1` [Example 2.22, 4-Methyl-2-(3-trifluoromethylbenzoylamino)thiazole-5-carboxylic Acid Benzylamide], the melting point fell in the range of 195 to 196 °C.

On to `Cc1nc(NC(=O)Nc2ccc(Cl)cc2)sc1C(=O)NCc1ccccc1` [Example 4.2, 2-[3-(4-Chlorophenyl)ureido]-4-methylthiazole-5-carboxylic Acid Benzylamide], for which the melting point is more than 300 °C.

The compound `Cc1nc(NC(=O)c2ccccc2)sc1C(=O)NCc1cccc(F)c1` [Example 7.2, 2-Benzoylamino-4-methylthiazole-5-carboxylic Acid 3-Fluorobenzylamide] yielded a melting point of 216 to 217 °C.

The compound `Cc1nc(NC(=O)c2ccccc2)sc1C(=O)NCc1cccc(Cl)c1` [Example 7.1, 2-Benzoylamino-4-methylthiazole-5-carboxylic Acid 3-Chlorobenzylamide] had a melting point of 198 to 199 °C.

`Cc1nc(NC(=O)c2cccc(F)c2)sc1C(=O)NCc1ccccc1` [Example 2.31, 2-(3-Fluorobenzoylamino)-4-methylthiazole-5-carboxylic Acid Benzylamide] came in with a melting point of 162 to 165 °C.

The term melting point denotes the temperature, or range, at which the solid turns liquid.
